Results taken from DBAASP.
Converted amounts (≈) assume the structure as drawn. “And” between values parts separate entries of the source, which are not always exact repeats. Identical values can stand only once. Blank lines part the entries; values can stand above or below the molecule they belong to.

Experiments:
Experiment in all cases: ≥ marks a high value that may be exact or a test limit, other limits are often not marked, values filed in µg/mL are converted to µM
Escherichia coli SBS 363 = test system: Escherichia coli SBS 363
[1] = test system: Pseudomonas aeruginosa ATCC 14502
[2] = test system: Escherichia coli ATCC 11775
[3] = test system: Staphylococcus aureus ATCC 12600
[4] = test system: Micrococcus luteus ATCC 49732
[5] = test system: Staphylococcus aureus ATCC 6538
[6] = test system: Escherichia coli ATCC 25922
[7] = test system: Staphylococcus aureus ATCC 43300
Micrococcus luteus A270 = test system: Micrococcus luteus A270
Pseudomonas aeruginosa = test system: Pseudomonas aeruginosa
[8] = test system: Salmonella typhimurium CCARM 8007
[9] = test system: Salmonella typhimurium KCTC 1926
[10] = test system: Candida albicans CCARM 14001
[11] = test system: Aeromonas salmonicida 99-1
[12] = test system: Salmonella enterica subsp. enterica serovar Typhimurium ATCC 14028s
[13] = test system: Pseudomonas aeruginosa Z61
[14] = test system: Escherichia coli CCARM 1229
[15] = test system: Candida albicans KCTC 7270
[16] = test system: Staphylococcus aureus CCARM 3126
[17] = test system: Staphylococcus aureus CCARM 3089
Escherichia coli UB1005 = test system: Escherichia coli UB1005
Staphylococcus aureus = test system: Staphylococcus aureus
[18] = test system: Pseudomonas aeruginosa K799
[19] = test system: Salmonella typhimurium CCARM 8013
[20] = test system: Escherichia coli KCTC 1682
[21] = test system: Salmonella typhimurium CCARM 8009
[22] = test system: Pseudomonas aeruginosa KCTC 1637
Escherichia coli DC2 = test system: Escherichia coli DC2
[23] = test system: Staphylococcus epidermidis C621
[24] = test system: Salmonella enterica serovar typhimurium MS7953s
[25] = test system: Staphylococcus aureus CCARM 3090
[26] = test system: Staphylococcus aureus CCARM 3108
[27] = test system: Escherichia coli CCARM 1238
[28] = test system: Staphylococcus aureus KCTC 1621
[29] = test system: Staphylococcus aureus CCARM 3114
[30] = test system: Escherichia coli CGSC 4908
[31] = test system: Trichosporon beigelii KCTC 7707
[32] = test system: Aeromonas salmonicida 97-4
[33] = test system: Staphylococcus aureus C623
Candida albicans C627 = test system: Candida albicans C627
[34] = test system: Staphylococcus aureus SAP 0017
Bacillus subtilis C971 = test system: Bacillus subtilis C971
[35] = test system: Pseudomonas aeruginosa H187
[36] = test system: Corynebacterium xerosis C875
[37] = test system: Pseudomonas aeruginosa H188
[38] = test system: Staphylococcus aureus ATCC 25923
[39] = test system: Salmonella typhimurium C610
[40] = test system: Enterococcus faecalis C625
[41] = test system: Salmonella typhimurium C587
[42] = test system: Candida albicans ATCC 2002
Bacillus subtilis = test system: Bacillus subtilis
Shigella dysenteriae = test system: Shigella dysenteriae
[43] = test system: Staphylococcus aureus ATCC 2592
[44] = test system: Helicobacter pylori NCTC 11637

MIC (Escherichia coli SBS 363): 6 µM (≈ 14.5 µg/mL)
MIC [1]: 6 µM (≈ 14.5 µg/mL)
MIC [2]: 0.8 µM (≈ 1.93 µg/mL)
MIC [3]: 0.4 µM (≈ 0.964 µg/mL)
MIC [4]: 0.8 µM (≈ 1.93 µg/mL)
MIC [5]: 6 µM (≈ 14.5 µg/mL)
MIC [6]: 6.6 µM (≈ 15.9 µg/mL)
MIC [7]: 26.5 µM (≈ 63.9 µg/mL)
MIC (Micrococcus luteus A270): 6 µM (≈ 14.5 µg/mL)
MIC (Pseudomonas aeruginosa): 6.6 µM (≈ 15.9 µg/mL)
SMILES: CC[C@H](C)[C@H](NC(=O)[C@H](C)NC(=O)[C@H](C)NC(=O)[C@H](CCC(=O)O)NC(=O)[C@H](CCCCN)NC(=O)CNC(=O)[C@@H](NC(=O)[C@H](CC(N)=O)NC(=O)[C@H](CCCCN)NC(=O)[C@@H](NC(=O)[C@@H](NC(=O)[C@H](CO)NC(=O)[C@H](Cc1c[nH]c2ccccc12)NC(=O)[C@H](CC(C)C)NC(=O)CN)[C@@H](C)O)[C@@H](C)CC)C(C)C)C(=O)N[C@@H](C)C(=O)N[C@@H](C)C(=O)NCC(=O)N[C@@H](CCCCN)C(=O)N[C@@H](C)C(=O)N[C@@H](C)C(=O)N[C@@H](CC(C)C)C(=O)NCC(=O)N[C@@H](C)C(=O)N[C@@H](CC(C)C)C(N)=O [GLWSTIKNVGKEAAIAAGKAALGAL]

MIC [8]: 4 µM (≈ 8.7 µg/mL)
MIC [9]: 1 µM and 2 µM
MIC [10]: 8 µM (≈ 17.4 µg/mL)
MIC [11]: 0.919 µM (≈ 2 µg/mL)
MIC [12]: 7.35 µM (≈ 16 µg/mL)
MIC [13]: 0.459 µM (≈ 0.999 µg/mL)
MIC [14]: 8 µM (≈ 17.4 µg/mL)
MIC [15]: 8 µM and 16 µM
MIC [16]: 4 µM (≈ 8.7 µg/mL)
MIC [17]: 2 µM (≈ 4.35 µg/mL)
MIC (Escherichia coli UB1005): 0.919 µM (≈ 2 µg/mL)
MIC (Staphylococcus aureus): 2.83 µM (≈ 6.15 µg/mL)
MIC [18]: 1.84 µM (≈ 4 µg/mL)
MIC [19]: 4 µM (≈ 8.7 µg/mL)
MIC [20]: 2 µM and 4 µM
MIC [21]: 16 µM (≈ 34.8 µg/mL)
MIC [22]: 4 µM and 8 µM
MIC (Escherichia coli DC2): 0.23 µM (≈ 0.5 µg/mL)
MIC [23]: 7.35 µM (≈ 16 µg/mL)
MIC [24]: 0.23 µM (≈ 0.5 µg/mL)
MIC [25]: 8 µM (≈ 17.4 µg/mL)
MIC [26]: 2 µM (≈ 4.35 µg/mL)
MIC [27]: 4 µM (≈ 8.7 µg/mL)
MIC [28]: 4 µM and 8 µM
MIC [29]: 4 µM (≈ 8.7 µg/mL)
MIC [30]: 0.459 µM (≈ 0.999 µg/mL)
MIC [31]: 4 µM and 8 µM
MIC [32]: 0.459 µM (≈ 0.999 µg/mL)
MIC [33]: 14.7 µM (≈ 32 µg/mL)
MIC (Candida albicans C627): 3.68 µM (≈ 7.99 µg/mL)
MIC (Pseudomonas aeruginosa): 4 µM (≈ 8.7 µg/mL)
SMILES: CC[C@H](C)[C@H](NC(=O)[C@H](C)NC(=O)[C@H](C)NC(=O)[C@H](CCC(N)=O)NC(=O)CNC(=O)[C@H](CC(C)C)NC(=O)[C@H](Cc1cnc[nH]1)NC(=O)[C@H](CCCCN)NC(=O)[C@H](C)NC(=O)CNC(=O)[C@H](CCCCN)NC(=O)[C@H](CCCNC(=N)N)NC(=O)[C@H](CC(C)C)NC(=O)[C@H](Cc1c[nH]c2ccccc12)NC(=O)[C@H](CCCCN)NC(=O)[C@H](CCCCN)NC(=O)[C@H](Cc1c[nH]c2ccccc12)NC(=O)CN)C(=O)N[C@@H](CCCCN)C(C)=O [GWKKWLRKGAKHLGQAAIK]

MIC [34]: 10.9 µM (≈ 32.4 µg/mL)
MIC (Bacillus subtilis C971): 1.7 µM (≈ 5.07 µg/mL)
MIC [35]: 6.86 µM (≈ 20.5 µg/mL)
MIC [36]: 0.848 µM (≈ 2.53 µg/mL)
MIC [37]: 10.9 µM (≈ 32.4 µg/mL)
MIC (Escherichia coli UB1005): 5.43 µM (≈ 16.2 µg/mL)
MIC [38]: 10.9 µM (≈ 32.4 µg/mL)
MIC [39]: 4.31 µM (≈ 12.9 µg/mL)
MIC (Escherichia coli DC2): 1.7 µM (≈ 5.07 µg/mL)
MIC [23]: 5.43 µM (≈ 16.2 µg/mL)
MIC [40]: 17.2 µM (≈ 51.5 µg/mL)
MIC [41]: 10.9 µM (≈ 32.4 µg/mL)
SMILES: CC[C@H](C)[C@H](NC(=O)[C@H](C)NC(=O)[C@H](CCCCN)NC(=O)[C@H](CC(C)C)NC(=O)[C@H](C)NC(=O)[C@@H](NC(=O)[C@H](Cc1cnc[nH]1)NC(=O)[C@H](CC(C)C)NC(=O)[C@@H](NC(=O)[C@@H](NC(=O)[C@H](CCCCN)NC(=O)[C@@H](NC(=O)[C@H](C)NC(=O)[C@H](CC(C)C)NC(=O)[C@H](CCCCN)NC(=O)[C@H](Cc1ccccc1)NC(=O)[C@@H](NC(=O)[C@H](CCCCN)NC(=O)[C@H](CC(C)C)NC(=O)[C@H](Cc1ccccc1)NC(=O)[C@H](CO)NC(=O)[C@H](CCCCN)NC(=O)[C@H](Cc1c[nH]c2ccccc12)NC(=O)[C@H](CCCCN)NC(C)=O)[C@@H](C)O)C(C)C)[C@@H](C)O)C(C)C)[C@@H](C)O)C(=O)N[C@@H](CO)C(=O)N[C@@H](CO)C(N)=O [KWKSFLKTFKLAVKTVLHTALKAISS]

MIC [42]: 9.82 µM (≈ 30 µg/mL)
MIC (Bacillus subtilis): ≥ 39.3 µM
MIC [6]: 19.6 µM (≈ 60 µg/mL)
MIC (Shigella dysenteriae): ≥ 39.3 µM
MIC [43]: 4.91 µM (≈ 15 µg/mL)
MIC [44]: 9.82 µM (≈ 30 µg/mL)
SMILES: CC[C@H](C)[C@H](NC(=O)[C@H](CCC(N)=O)NC(=O)[C@H](CCCCN)NC(=O)[C@H](Cc1c[nH]c2ccccc12)NC(=O)[C@H](CC(C)C)NC(=O)[C@H](CCC(N)=O)NC(=O)[C@@H]1CCCN1C(=O)[C@H](CC(C)C)NC(=O)[C@H](CCCCN)NC(=O)[C@H](C)NC(=O)[C@H](CCC(=O)O)NC(=O)[C@H](CCCCN)NC(=O)[C@@H](NC(=O)[C@H](CCSC)NC(=O)[C@@H](NC(=O)[C@@H](NC(=O)[C@@H](NC(=O)[C@@H](N)CO)[C@@H](C)CC)[C@@H](C)CC)[C@@H](C)O)[C@@H](C)O)C(=O)N[C@@H](C)C(=O)N[C@H]1CSSC[C@@H](C(=O)O)NC(=O)[C@H]([C@@H](C)O)NC(=O)[C@H](CC(N)=O)NC(=O)[C@H](Cc2ccc(O)cc2)NC(=O)[C@H](CC(C)C)NC(=O)[C@H](CCCN=C(N)N)NC1=O [SIITMTKEAKLPQLWKQIACRLYNTC]
